Results from patent US12552804B2, “Tricyclic heterocycles as FGFR inhibitors” (Incyte Corporation, priority 2019, dated 2026).

Molecular target: wild-type un-phosphorylated FGFR3 protein (Homo sapiens, UniProt P22607)
Experiment: FGFR Enzymatic Assay (FRET detection of peptide phosphorylation)
Assay type: biochemical
Details: pre-incubated for 4 hours, read-out: FGFR3_Ki
In short: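 Wild-type un-phosphorylated FGFR3, preincubated 5–15 min with inhibitor in HEPES pH 7.5/MgCl2/DTT buffer, then peptide phosphorylation for 1 hr at 25 °C (ATP Km pre-determined). Quenched with EDTA/staurosporin; Eu-PY20/APC-streptavidin FRET read; IC50 from four-parameter logistic fit.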

Chain of wild-type un-phosphorylated FGFR3 protein (P22607 23-806): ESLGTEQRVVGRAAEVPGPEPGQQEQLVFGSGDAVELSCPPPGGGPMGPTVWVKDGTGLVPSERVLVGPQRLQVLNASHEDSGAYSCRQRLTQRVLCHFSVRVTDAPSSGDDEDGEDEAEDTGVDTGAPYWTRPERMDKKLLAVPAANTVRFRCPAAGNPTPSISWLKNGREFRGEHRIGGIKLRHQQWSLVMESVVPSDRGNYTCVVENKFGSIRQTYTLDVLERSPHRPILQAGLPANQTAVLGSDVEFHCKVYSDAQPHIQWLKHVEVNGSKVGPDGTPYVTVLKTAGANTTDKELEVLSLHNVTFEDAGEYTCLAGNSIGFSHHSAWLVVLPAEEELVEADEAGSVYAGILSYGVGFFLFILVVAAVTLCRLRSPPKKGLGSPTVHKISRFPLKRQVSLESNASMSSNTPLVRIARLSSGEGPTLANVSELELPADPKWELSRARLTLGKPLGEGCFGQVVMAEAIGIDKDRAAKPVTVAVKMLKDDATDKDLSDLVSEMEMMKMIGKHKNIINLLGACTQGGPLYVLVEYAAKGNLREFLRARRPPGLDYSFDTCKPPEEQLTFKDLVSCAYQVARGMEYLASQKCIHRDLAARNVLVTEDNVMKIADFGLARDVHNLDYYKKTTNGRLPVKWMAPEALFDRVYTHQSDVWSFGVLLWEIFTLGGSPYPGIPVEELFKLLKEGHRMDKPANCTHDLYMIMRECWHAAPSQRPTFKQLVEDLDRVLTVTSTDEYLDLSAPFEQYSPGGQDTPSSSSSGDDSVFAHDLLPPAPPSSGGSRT

| SMILES | Ki [nM] |
| --- | --- |
| OCc1c(-c2c(Cl)cccc2Cl)nc2c3cc(-c4cnn(C5COC5)c4)cnc3ccn12 [Example 71, (2-(2,6-Dichlorophenyl)-9-(1-(oxetan-3-yl)-1H-pyrazol-4-yl)imidazo[2,1-f][1,6]naphthyridin-3-yl)methanol] | < 10 |
| CN(C)CCn1cc(-c2cnc3ccn4c(CO)c(-c5c(Cl)cccc5Cl)nc4c3c2)cn1 [Example 72, (2-(2,6-Dichlorophenyl)-9-(1-(2-(dimethylamino)ethyl)-1H-pyrazol-4-yl)imidazo[2,1-f][1,6]naphthyridin-3-yl)methanol] | < 10 |
| CC(C)n1cc(-c2cnc3ccn4c(CO)c(-c5c(Cl)cccc5Cl)nc4c3c2)cn1 [Example 73, (2-(2,6-Dichlorophenyl)-9-(1-isopropyl-1H-pyrazol-4-yl)imidazo[2,1-f][1,6]naphthyridin-3-yl)methanol] | < 10 |
| OCc1c(-c2c(Cl)cccc2Cl)nc2c3cc(-c4cnn(C(F)F)c4)cnc3ccn12 [Example 74, (2-(2,6-Dichlorophenyl)-9-(1-(difluoromethyl)-1H-pyrazol-4-yl)imidazo[2,1-f][1,6]naphthyridin-3-yl)methanol] | < 10 |
| N#CCCn1cc(-c2cnc3ccn4c(CO)c(-c5c(Cl)cccc5Cl)nc4c3c2)cn1 [Example 75, 3-(4-(2-(2,6-Dichlorophenyl)-3-(hydroxymethyl)imidazo[2,1-f][1,6]naphthyridin-9-yl)-1H-pyrazol-1-yl)propanenitrile] | < 10 |
| CC(C)(O)Cn1cc(-c2cnc3ccn4c(CO)c(-c5c(Cl)cccc5Cl)nc4c3c2)cn1 [Example 76, 1-(4-(2-(2,6-Dichlorophenyl)-3-(hydroxymethyl)imidazo[2,1-f][1,6]naphthyridin-9-yl)-1H-pyrazol-1-yl)-2-methylpropan-2-ol] | < 10 |
| N#CCn1cc(-c2cnc3ccn4c(CO)c(-c5c(Cl)cccc5Cl)nc4c3c2)cn1 [Example 77, 2-(4-(2-(2,6-Dichlorophenyl)-3-(hydroxymethyl)imidazo[2,1-f][1,6]naphthyridin-9-yl)-1H-pyrazol-1-yl)acetonitrile] | < 10 |
| CN1CCC(n2cc(-c3cnc4ccn5c(CO)c(-c6c(Cl)cccc6Cl)nc5c4c3)cn2)CC1 [Example 78, (2-(2,6-Dichlorophenyl)-9-(1-(1-methylpiperidin-4-yl)-1H-pyrazol-4-yl)imidazo[2,1-f][1,6]naphthyridin-3-yl)methanol] | < 10 |
| CC(C)(CO)n1cc(-c2cnc3ccn4c(CO)c(-c5c(Cl)cccc5Cl)nc4c3c2)cn1 [Example 79, 2-(4-(2-(2,6-Dichlorophenyl)-3-(hydroxymethyl)imidazo[2,1-f][1,6]naphthyridin-9-yl)-1H-pyrazol-1-yl)-2-methylpropan-1-ol] | < 10 |
| CS(=O)(=O)CCn1cc(-c2cnc3ccn4c(CO)c(-c5c(Cl)cccc5Cl)nc4c3c2)cn1 [Example 80, (2-(2,6-Dichlorophenyl)-9-(1-(2-(methylsulfonyl)ethyl)-1H-pyrazol-4-yl)imidazo[2,1-f][1,6]naphthyridin-3-yl)methanol] | < 10 |
| OCc1c(-c2c(Cl)cccc2Cl)nc2c3cc(-c4cnn(CC(F)(F)F)c4)cnc3ccn12 [Example 81, (2-(2,6-Dichlorophenyl)-9-(1-(2,2,2-trifluoroethyl)-1H-pyrazol-4-yl)imidazo[2,1-f][1,6]naphthyridin-3-yl)methanol] | < 10 |
| OCc1c(-c2c(Cl)cccc2Cl)nc2c3cc(-c4cnn(CCN5CCOCC5)c4)cnc3ccn12 [Example 82, (2-(2,6-Dichlorophenyl)-9-(1-(2-morpholinoethyl)-1H-pyrazol-4-yl)imidazo[2,1-f][1,6]naphthyridin-3-yl)methanol] | < 10 |
| OCCn1cc(-c2cnc3ccn4c(CO)c(-c5c(Cl)cccc5Cl)nc4c3c2)cn1 [Example 83, 2-(4-(2-(2,6-Dichlorophenyl)-3-(hydroxymethyl)imidazo[2,1-f][1,6]naphthyridin-9-yl)-1H-pyrazol-1-yl)ethan-1-ol] | < 10 |
